According to US11655225B2, “Antimycobacterial heterocyclic amides” (Crestone, Inc., priority 2018, dated 2023):
In brackets after ≈: the same amount, converted by molar mass.

Assays:
M. abscessus [1] = experiment: Bactericidal activity; format: cell-based
M. tuberculosis = experiment: Bactericidal activity; format: cell-based
M. chelonae = experiment: MIC determination, CLSI M24-A; format: cell-based; settings: Mycobacteroides chelonae, range over compounds and species, read-out: MIC90 (concentration which inhibits 90% of strains)
M. abscessus [2] = experiment: MIC determination, CLSI M24-A; format: cell-based; settings: Mycobacteroides abscessus; for MIC90: range over compounds and species, read-out: MIC90 (concentration which inhibits 90% of strains); for MIC: CLSI M24-A
[3] = system: azithromycin-, doxycycline, and sulfamethoxazole-resistant M. abscessus; experiment: MIC against drug-resistant strains; format: cell-based; settings: for MIC: Mycobacteroides abscessus, clinically relevant resistant strains, M. abscessus, range over compounds and strains; for activity against resistant strains: azithromycin-, doxycycline, and sulfamethoxazole-resistant M. abscessus
M. fortuitum = experiment: MIC determination, CLSI M24-A; format: cell-based; settings: Mycolicibacterium fortuitum, range over compounds and species, read-out: MIC90 (concentration which inhibits 90% of strains)
Mabs #21 = experiment: 28-day mouse model of chronic NTM lung infection, efficacy; format: in vivo, M. abscessus; settings: GM-CSF KO mice; 25 mg/kg once daily over 4 weeks, intratracheal microspray, 5% corn oil/saline emulsion
physchem = settings: oil or lipid
[4] = mouse, in vivo
Mabs ATCC19977 = format: cell-based; settings: isolated at 4×MIC on 7H11-ADC agar
proton motive force = experiment: Membrane potential and electrochemical pH gradient monitoring; format: cell-based; settings: Mtb intact cells and inverted membrane vesicles; data not shown

## CC12CCCC(C(=O)Nc3nc4cc(Cl)cc(Cl)c4s3)(CCC1)C2 [Example 2, N-(5,7-dichloro-1,3-benzothiazol-2-yl)-5-methylbicyclo[3.3.1]nonane-1-carboxamide]
M. abscessus [1]
  bactericidal effect: bactericidal
M. tuberculosis
  bactericidal effect: bactericidal
M. chelonae
  MIC90: 0.12 to 1 µg/mL (≈ 0.313 to 2.61 µM)
M. abscessus [2]
  MIC90: 0.12 to 1 µg/mL (≈ 0.313 to 2.61 µM)
[3]
  MIC: 0.03 to 4 µg/mL (≈ 0.0783 to 10.4 µM)
  activity against resistant strains: active
M. fortuitum
  MIC90: 0.12 to 1 µg/mL (≈ 0.313 to 2.61 µM)

## CC12CCCC(C(=O)Nc3nc4ccc(OC(F)(F)F)cc4s3)(CCC1)C2 [Example 5, 5-methyl-N-[6-(trifluoromethoxy)-1,3-benzothiazol-2-yl]bicyclo[3.3.1]nonane-1-carboxamide]
M. chelonae
  MIC90: 0.12 to 1 µg/mL (≈ 0.301 to 2.51 µM)
M. abscessus [2]
  MIC90: 0.12 to 1 µg/mL (≈ 0.301 to 2.51 µM)
[3]
  MIC: 0.03 to 4 µg/mL (≈ 0.0753 to 10 µM)
  activity against resistant strains: active
M. fortuitum
  MIC90: 0.12 to 1 µg/mL (≈ 0.301 to 2.51 µM)

## CC12CC3CC(C)(C1)CC(C(=O)Nc1nc4ccc(OC(F)(F)F)cc4s1)(C3)C2 [Example 45, 3,5-dimethyl-N-[6-(trifluoromethoxy)-1,3-benzothiazol-2-yl]adamantane-1-carboxamide]
Mabs #21
  lung bacterial load (CFU) versus vehicle control: statistically significant CFU reduction
M. chelonae
  MIC90: 0.12 to 1 µg/mL (≈ 0.283 to 2.36 µM)
M. abscessus [2]
  MIC90: 0.12 to 1 µg/mL (≈ 0.283 to 2.36 µM)
[3]
  MIC: 0.03 to 4 µg/mL (≈ 0.0707 to 9.42 µM)
  activity against resistant strains: active
physchem
  solubility: ≤ 250 mg/mL
[4]
  tolerability: very well tolerated
M. fortuitum
  MIC90: 0.12 to 1 µg/mL (≈ 0.283 to 2.36 µM)

## CC1CC(C(=O)Nc2nc3ccc(OC(F)(F)F)cc3s2)CC(C)(C)C1 (centres unmarked) [Example 46, 3,3,5-trimethyl-N-[6-(trifluoromethoxy)-1,3-benzothiazol-2-yl]cyclohexane-1-carboxamide]
[3]
  MIC: 0.03 to 4 µg/mL (≈ 0.0776 to 10.4 µM)
  activity against resistant strains: active

## CC1CC(C(=O)Nc2nc3ccc(C(F)(F)F)cc3s2)CC(C)(C)C1 (centres unmarked) [Example 79, 3,3,5-trimethyl-N-[6-(trifluoromethyl)-1,3-benzothiazol-2-yl]cyclohexane-1-carboxamide]
Mabs ATCC19977
  mutations found in spontaneous-resistant mutants: non-synonymous mutations in their mmpL3 gene (L551S, I306S, A309P)

## CC1CC(C(=O)Nc2nc3c(F)cc(F)cc3s2)CC(C)(C)C1 (centres unmarked) [Example 80, N-(4,6-difluoro-1,3-benzothiazol-2-yl)-3,3,5-trimethylcyclohexane-1-carboxamide]
Mabs ATCC19977
  mutations found in spontaneous-resistant mutants: non-synonymous mutations in their mmpL3 gene (L551S, I306S, A309P)
[3]
  MIC: 0.03 to 4 µg/mL (≈ 0.0886 to 11.8 µM)
  activity against resistant strains: active
Proton motive force
  effect on proton motive force (membrane potential, electrochemical pH gradient): did not result from the collapse of the proton motive force

## CC(C)(C)C(=O)Nc1nc2ccc(OC(F)(F)F)cc2s1 [Example 173, 2,2-dimethyl-N-[6-(trifluoromethoxy)-1,3-benzothiazol-2-yl]propanamide]
M. abscessus [2]
  MIC: 2 to 32 µg/mL (≈ 6.28 to 101 µM)

## CC1CC(C(=O)Nc2nc3cccc(O)c3s2)CC(C)(C)C1 (centres unmarked) [Example 174, N-(7-hydroxy-1,3-benzothiazol-2-yl)-3,3,5-trimethylcyclohexane-1-carboxamide]
M. abscessus [2]
  MIC: 2 to 32 µg/mL (≈ 6.28 to 100 µM)

## CC1CC(C(=O)Nc2nc3cc(F)c(F)cc3o2)CC(C)(C)C1 (centres unmarked) [Example 175, N-(5,6-difluoro-1,3-benzoxazol-2-yl)-3,3,5-trimethylcyclohexane-1-carboxamide]
M. abscessus [2]
  MIC: 2 to 32 µg/mL (≈ 6.2 to 99.3 µM)

## O=C(Nc1cc2ccccc2s1)C1CCCCC1 [Example 176, N-(1-benzothiophen-2-yl)cyclohexanecarboxamide]
M. abscessus [2]
  MIC: 2 to 32 µg/mL (≈ 7.71 to 123 µM)

## CC1CC(C(=O)Nc2nc3ccc(SC(F)(F)F)cc3s2)CC(C)(C)C1 (centres unmarked) [Example 177, 3,3,5-trimethyl-N-{6-[(trifluoromethyl)sulfanyl]-1,3-benzothiazol-2-yl}cyclohexane-1-carboxamide]
M. abscessus [2]
  MIC: 2 to 32 µg/mL (≈ 4.97 to 79.5 µM)

## CC1CC(C(=O)Nc2nc3ccc(F)cc3[nH]2)CC(C)(C)C1 (centres unmarked) [Example 178, N-(6-fluoro-1H-1,3-benzodiazol-2-yl)-3,3,5-trimethylcyclohexane-1-carboxamide]
M. abscessus [2]
  MIC: 2 to 32 µg/mL (≈ 6.59 to 105 µM)

## CC1CC(C(=O)Nc2nc3c(Cl)cccc3s2)CC(C)(C)C1 (centres unmarked) [Example 179, N-(4-chloro-1,3-benzothiazol-2-yl)-3,3,5-trimethylcyclohexane-1-carboxamide]
M. abscessus [2]
  MIC: 2 to 32 µg/mL (≈ 5.94 to 95 µM)

## Cc1cccc2sc(NC(=O)C3CCCC(C)C3)nc12 (centres unmarked) [Example 180, 3-methyl-N-(4-methyl-1,3-benzothiazol-2-yl)cyclohexane-1-carboxamide]
M. abscessus [2]
  MIC: 2 to 32 µg/mL (≈ 6.93 to 111 µM)

## COc1ccc2nc(NC(=O)C3CCCC(C)C3)sc2c1 (centres unmarked) [Example 181, N-(6-methoxy-1,3-benzothiazol-2-yl)-3-methylcyclohexane-1-carboxamide]
M. abscessus [2]
  MIC: 2 to 32 µg/mL (≈ 6.57 to 105 µM)

## CC1CCCC(C(=O)Nc2nc3ccccc3s2)C1 (centres unmarked) [Example 182, N-(1,3-benzothiazol-2-yl)-3-methylcyclohexane-1-carboxamide]
M. abscessus [2]
  MIC: 2 to 32 µg/mL (≈ 7.29 to 117 µM)

## Cc1cccc2sc(NC(=O)C3CC4CCC3C4)nc12 (centres unmarked) [Example 183, N-(4-methyl-1,3-benzothiazol-2-yl)bicyclo[2.2.1]heptane-2-carboxamide]
M. abscessus [2]
  MIC: 2 to 32 µg/mL (≈ 6.98 to 112 µM)

## CC12CCCC(C(=O)Nc3nc4cc(Cl)cc(Cl)c4o3)(CCC1)C2 [Example 184, N-(5,7-dichloro-1,3-benzoxazol-2-yl)-5-methylbicyclo[3.3.1]nonane-1-carboxamide]
M. abscessus [2]
  MIC: 2 to 32 µg/mL (≈ 5.45 to 87.1 µM)

## CC1(C(=O)Nc2nc3ccc(OC(F)(F)F)cc3s2)CC2CCC1O2 (centres unmarked) [Example 185, 2-methyl-N-[6-(trifluoromethoxy)-1,3-benzothiazol-2-yl]-7-oxabicyclo[2.2.1]heptane-2-carboxamide]
M. abscessus [2]
  MIC: 2 to 32 µg/mL (≈ 5.37 to 85.9 µM)

## CC1CC(C(=O)Nc2nc3ccc(N(C)C)cc3s2)CC(C)(C)C1 (centres unmarked) [Example 186, N-[6-(dimethylamino)-1,3-benzothiazol-2-yl]-3,3,5-trimethylcyclohexane-1-carboxamide]
M. abscessus [2]
  MIC: 2 to 32 µg/mL (≈ 5.79 to 92.6 µM)

## O=C(Nc1nc2ccccc2o1)C1CCCCCCC1 [Example 187, N-(1,3-benzoxazol-2-yl)cyclooctanecarboxamide]
M. abscessus [2]
  MIC: 2 to 32 µg/mL (≈ 7.34 to 117 µM)

## O=C(Nc1nc2ccc(OC(F)(F)F)cc2s1)C1CCCCC1 [Example 188, N-[6-(trifluoromethoxy)-1,3-benzothiazol-2-yl]cyclohexanecarboxamide]
M. abscessus [2]
  MIC: 2 to 32 µg/mL (≈ 5.81 to 92.9 µM)

## CC1CC(C(=O)Nc2nc3c(F)cc(F)cc3o2)CC(C)(C)C1 (centres unmarked) [Example 189, N-(4,6-difluoro-1,3-benzoxazol-2-yl)-3,3,5-trimethylcyclohexane-1-carboxamide]
M. abscessus [2]
  MIC: 2 to 32 µg/mL (≈ 6.2 to 99.3 µM)

## CC1CC(C(=O)Nc2nc3cc(Br)ccc3s2)CC(C)(C)C1 (centres unmarked) [Example 190, N-(5-bromo-1,3-benzothiazol-2-yl)-3,3,5-trimethylcyclohexane-1-carboxamide]
M. abscessus [2]
  MIC: 2 to 32 µg/mL (≈ 5.24 to 83.9 µM)

## COC1CCCC(C(=O)Nc2nc3ccc(Cl)cc3s2)C1 (centres unmarked) [Example 191, N-(6-chloro-1,3-benzothiazol-2-yl)-3-methoxycyclohexane-1-carboxamide]
M. abscessus [2]
  MIC: 2 to 32 µg/mL (≈ 6.16 to 98.5 µM)

## O=C(Nc1nc2ccc(C(F)(F)F)cc2s1)C1CCC2(CC1)CC2 [Example 192, N-[6-(trifluoromethyl)-1,3-benzothiazol-2-yl]spiro[2.5]octane-6-carboxamide]
M. abscessus [2]
  MIC: 2 to 32 µg/mL (≈ 5.64 to 90.3 µM)
